The assay has as its system hepatocellular carcinoma cell line Hub-7. The experiment in a line: Cell proliferation assay (CELL-TITER GLO cell viability). It counts as cell-based. The note with it: 24 h, Hub-7 cells, 24 h incubation, read-out: Inhibition of Cell Proliferation EC50. On the procedure:
The activity of a test compound was determined in a cell proliferation assay using the hepatocellular carcinoma cell line […]. Cells (4,000 cells per well) were seeded in a 96-well tissue culture plate. After incubated overnight, a test compound was added at predetermined concentrations, starting with 10 μM and followed by 3-fold serial dilution. After the cells were incubated for 24 h, cell viability was determined using a CELL-TITER GLO® assay. The CELL-TITER GLO® reagent (50 μL) was added to each well and the luminescence was measured by a multimode microplate reader after a brief period of shaking. EC50 values were determined for the test compound. The results are summarized in Table 1, wherein A represents a value no greater than 100 nM, B represents a value greater than 100 nM but no greater than 500 nM, C represents a value greater than 500 nM but no greater than 2 μM, D represents a value greater than 2 μM but no greater than 10 μM; and E represents a value greater than 10 μM.

The source of these data is patent publication US12516016B2, “GPX4 inhibitors, pharmaceutical compositions thereof, and their use for treating GPX4-mediated diseases” (EUBULUS BIOTHERAPEUTICS (HONG KONG) LIMITED, priority 2020, dated 2026).

Take `C#CC(=O)N(c1cccc(Cl)c1)C(C(=O)NCC1COC1)c1ccccc1` (stereo not shown) [A181, N-(3-Chlorophenyl)-N-(2-((oxetan-3-ylmethyl)amino)-2-oxo-1-phenylethyl)-propiolamide]: the EC50 was not above 100 nM.
On to `C#CC(=O)N(c1ccc(C(=O)OC)cc1)C(C(=O)NCc1ccccc1)c1ccc(N)cc1` (stereo not shown) [A69, Methyl 4-(N-(1-(4-aminophenyl)-2-(benzylamino)-2-oxoethyl)propiolamido)-benzoate], for which the EC50 was not above 100 nM.
Take `C#CC(=O)N(c1cccc(Cl)c1)C(C(=O)NCc1ccccc1)C1CCOCC1` (stereo not shown) [A78, N-(2-(Benzylamino)-2-oxo-1-(tetrahydro-2H-pyran-4-yl)ethyl)-N-(3-chloro-phenyl)propiolamide]: the EC50 is 500 to 2000 nM.
As to `C#CC(=O)N(c1cccc(C(N)=O)c1)C(C(=O)NCc1ccccc1)c1ccc(N)cc1` (stereo not shown) [A62, 3-(N-(1-(4-Aminophenyl)-2-(benzylamino)-2-oxoethyl)propiolamido)-benzamide], the EC50 is more than 10000 nM.
Turning to `C#CC(=O)N(c1ccc(NC(C)=O)cc1)C(C(=O)NC(C)(C)C)c1cccc(N)c1` (stereo not shown) [A23, N-(4-Acetamidophenyl)-N-(1-(3-aminophenyl)-2-(tert-butylamino)-2-oxoethyl)-propiolamide], the EC50 is 2000 to 10000 nM.
Under `C#CC(=O)N(c1cccc(Cl)c1)C1(C(=O)NCC(=O)NCc2ccccc2O)CCOCC1` [A185, 4-(N-(3-Chlorophenyl)propiolamido)-N-(2-((2-hydroxybenzyl)amino)-2-oxoethyl)tetrahydro-2H-pyran-4-carboxamide] stands 100 to 500 nM; under `C#CC(=O)N(c1cccc(C(=O)OC)c1)C(C(=O)NCc1ccccc1)c1cccc(N)c1` (stereo not shown) [A122], not above 100 nM.
Turning to `C#CC(=O)N(c1cccc(Cl)c1)C1(C(=O)NCC(=O)NCc2ccccc2C#N)CCOCC1` [A189, 4-(N-(3-Chlorophenyl)propiolamido)-N-(2-((2-cyanobenzyl)amino)-2-oxoethyl)-tetrahydro-2H-pyran-4-carboxamide], the EC50 was 100 to 500 nM.
The same measure for `O=C(NCCc1ccccc1)C(c1ccc([N+](=O)[O-])cc1)N(Cc1ccccc1)C(=O)CCl` (stereo not shown) [C12, N-Benzyl-2-chloro-N-(1-(4-nitrophenyl)-2-oxo-2-(phenethylamino)ethyl)-acetamide]: 2000 to 10000 nM; for `C#CC(=O)N(c1cccc(Cl)c1F)C(C(=O)NCc1ccccc1)c1ccccc1` (stereo not shown) [A81, N-(2-(Benzylamino)-2-oxo-1-phenylethyl)-N-(3-chloro-2-fluorophenyl)-propiolamide]: 100 to 500 nM.
Consider `Cn1ncc2cc(N(C(=O)C#CCO)C3(C(=O)NCc4ccccc4)CCOCC3)ccc21` [A131, N-Benzyl-4-(4-hydroxy-N-(1-methyl-1H-indazol-5-yl)but-2-ynamido)tetrahydro-2H-pyran-4-carboxamide], for which the EC50 was more than 10000 nM.
`C#CC(=O)N(c1ccc(CO)cc1)C(C(=O)NC(C)(C)C)c1ccc(N)cc1` (stereo not shown) [A16, N-(1-(4-Aminophenyl)-2-(tert-butylamino)-2-oxoethyl)-N-(4-(hydroxymethyl)-phenyl)propiolamide]: the EC50 is 2000 to 10000 nM.
The same measure for `CC#CC(=O)N(c1cncc(Cl)c1)C(C(=O)NCc1ccccc1)c1ccccc1` (stereo not shown) [A133, N-(2-(Benzylamino)-2-oxo-1-phenylethyl)-N-(5-chloropyridin-3-yl)but-2-ynamide]: more than 10000 nM; for `COC(=O)c1cccc(N(C(=O)CCl)C(C(=O)NCCc2ccccc2)c2ccc([N+](=O)[O-])cc2)c1` (stereo not shown) [C7, Methyl-3-(2-chloro-N-(1-(4-nitrophenyl)-2-oxo-2-(phenethylamino)ethyl)-acetamido)benzoate]: 100 to 500 nM; for `C#CC(=O)N(c1cccn2cnnc12)C(C(=O)NCc1ccccc1)c1ccccc1` (stereo not shown) [A147, N-([1,2,4]Triazolo[4,3-a]pyridin-8-yl)-N-(2-(benzylamino)-2-oxo-1-phenylethyl)-propiolamide]: 100 to 500 nM.
For the compound `Cn1ncc2cc(N(C(=O)CCl)C3(C(=O)NCCc4ccccc4)CCOCC3)ccc21` [C22, 4-(2-Chloro-N-(1-methyl-1H-indazol-5-yl)acetamido)-N-phenethyltetrahydro-2H-pyran-4-carboxamide], the EC50 is 500 to 2000 nM.
Under `COc1ccc(N(C(=O)CCl)C2(C(=O)NCc3ccccc3)CCC(F)(F)CC2)cc1Cl` [C27, N-Benzyl-1-(2-chloro-N-(3-chloro-4-methoxyphenyl)acetamido)-4,4-difluoro-cyclohexane-1-carboxamide] stands not above 100 nM.
Under `CC#CC(=O)N(c1ccc2c(cnn2C)c1)C1(C(=O)NCc2ccccc2)CCCOC1` (stereo not shown) [A126, N-Benzyl-3-(N-(1-methyl-1H-indazol-5-yl)but-2-ynamido)tetrahydro-2H-pyran-3-carboxamide] stands 2000 to 10000 nM.
Under `C#CC(=O)N(c1cccc2nsnc12)C1(C(=O)NCc2ccccc2)CCOCC1` [A161, 4-(N-(Benzo[c][1,2,5]thiadiazol-4-yl)propiolamido)-N-benzyltetrahydro-2H-pyran-4-carboxamide] stands not above 100 nM; under `C#CC(=O)N(c1ccc2[nH]ccc2c1)C1(C(=O)NCc2ccccc2)CCOCC1` [A152, 4-(N-(1H-Indol-5-yl)propiolamido)-N-benzyltetrahydro-2H-pyran-4-carboxamide], 2000 to 10000 nM; under `C#CC(=O)N(c1cccc2c1OCO2)C1(C(=O)NCc2ccccc2)CCOCC1` [A141, 4-(N-(Benzo[d][1,3]dioxol-4-yl)propiolamido)-N-benzyltetrahydro-2H-pyran-4-carboxamide], not above 100 nM.
Turning to `C#CC(=O)N(Cc1cccc(O)c1)C1(C(=O)NCc2ccccc2)CCOCC1` [A138, N-Benzyl-4-(N-(3-hydroxybenzyl)propiolamido)tetrahydro-2H-pyran-4-carboxamide], the EC50 is not above 100 nM.
As for `C#CC(=O)N(c1cccc(Cl)c1)[C@]1(C(=O)NCc2ccccc2)CC[C@H](O)CC1` [A110, (1S,4S)—N-Benzyl-1-(N-(3-chlorophenyl)propiolamido)-4-hydroxycyclohexane-carboxamide], the EC50 lay within 100 to 500 nM.
Under `Cn1ncc2cc(N(C(=O)C(F)F)C3(C(=O)NCc4ccccc4)CCOCC3)ccc21` [D1, N-Benzyl-4-(2,2-difluoro-N-(1-methyl-1H-indazol-5-yl)acetamido)tetrahydro-2H-pyran-4-carboxamide] stands more than 10000 nM; under `Nc1ccc(N(C(=O)CCl)C(C(=O)NCCc2ccccc2)c2cccs2)cc1` (stereo not shown) [C2, N-(4-Aminophenyl)-2-chloro-N-(2-oxo-2-(phenethylamino)-1-(thiophen-2-yl)-ethyl)acetamide], 2000 to 10000 nM; under `C#CC(=O)N(c1ccc(OC)c(Cl)c1)C(C(=O)NCc1ccccc1)c1cccc(N)c1` (stereo not shown) [A34, N-(1-(3-Aminophenyl)-2-(benzylamino)-2-oxoethyl)-N-(3-chloro-4-methoxy-phenyl)propiolamide], not above 100 nM.
Under `C#CC(=O)N(c1ccn(C)c(=O)c1)C(C(=O)NCc1ccccc1)c1ccccc1` (stereo not shown) [A102, N-(2-(Benzylamino)-2-oxo-1-phenylethyl)-N-(1-methyl-2-oxo-1,2-dihydropyridin-4-yl)propiolamide] stands 2000 to 10000 nM; under `C#CC(=O)N(c1ccccc1N1CCOCC1)C1(C(=O)NCc2ccccc2)CCOCC1` [A139, N-Benzyl-4-(N-(2-morpholinophenyl)propiolamido)tetrahydro-2H-pyran-4-carboxamide], not above 100 nM; under `C#CC(=O)N(c1cccc(Cl)c1)C(C(=O)NCc1ccccc1)C1CC1` (stereo not shown) [A72, N-(2-(benzylamino)-1-cyclopropyl-2-oxoethyl)-N-(3-chlorophenyl)propiolamide], 100 to 500 nM.
The same measure for `CC(Cl)C(=O)N(c1ccc2c(cnn2C)c1)C1(C(=O)NCc2ccccc2)CCOCC1` (stereo not shown) [C24, N-Benzyl-4-(2-chloro-N-(1-methyl-1H-indazol-5-yl)propanamido)tetrahydro-2H-pyran-4-carboxamide]: more than 10000 nM.
With `C#CC(=O)N(c1ccc2nsnc2c1)C(C(=O)NCc1ccccc1)c1ccccc1` (stereo not shown) [A94, N-(Benzo[c][1,2,5]thiadiazol-5-yl)-N-(2-(benzylamino)-2-oxo-1-phenylethyl)-propiolamide], the EC50 was not above 100 nM.
The same measure for `C#CC(=O)N(c1ccc2scnc2c1)C(C(=O)NCc1ccccc1)c1ccccc1` (stereo not shown) [A88, N-(Benzo[d]thiazol-5-yl)-N-(2-(benzylamino)-2-oxo-1-phenylethyl)-propiolamide]: not above 100 nM.
The same measure for `C#CC(=O)N(c1cccc(C(=O)OC)c1)C(C(=O)NCc1ccccc1)c1ccc(N)cc1` (stereo not shown) [A54, Methyl 3-(N-(1-(4-aminophenyl)-2-(benzylamino)-2-oxoethyl)propiolamido)-benzoate]: not above 100 nM; for `C#CC(=O)N(c1cccc(Cl)c1)C1(C(=O)NCc2ccccc2)CCC(C(=O)OC)CC1` (stereo not shown) [A79, Methyl 4-(benzylcarbamoyl)-4-(N-(3-chlorophenyl)propiolamido)-cyclohexane-carboxylate]: not above 100 nM; for `C=CC(=O)N(c1ccc(OC)c(Cl)c1)C(C(=O)NCc1ccccc1)c1cccc(N)c1` (stereo not shown) [B2, N-(2-(benzylamino)-1-(3-aminophenyl)-2-oxoethyl)-N-(3-chloro-4-methoxyphenyl)acrylamide]: more than 10000 nM.
As for `O=C(CCl)N(c1cccc2nsnc12)C1(C(=O)NCCc2ccccc2)CCOCC1` [C29, 4-(N-(Benzo[c][1,2,5]thiadiazol-4-yl)-2-chloroacetamido)-N-phenethyltetrahydro-2H-pyran-4-carboxamide], the EC50 was in the range of 500 to 2000 nM.
For the compound `COc1cccc(N(C(=O)CCl)C(C(=O)NCCc2ccccc2)c2ccc([N+](=O)[O-])cc2)c1` (stereo not shown) [C10, 2-Chloro-N-(3-methoxyphenyl)-N-(1-(4-nitrophenyl)-2-oxo-2-(phenethylamino)-ethyl)acetamide], the EC50 was in the range of 100 to 500 nM.
